89 compounds from a melting point compilation (Tetko et al.; mined from patent text by program, amines drawn as free bases though some values may be those of a salt) can be followed below.

What is called melting point is the temperature, or range, at which the solid turns liquid. `CNc1nnc(-c2cccc(F)c2)c(=O)n1NC` showed a melting point of 173 to 174 °C.
Turning to `Cc1cc(N)ccc1N1CCOCC1`, the melting point fell in the range of 83 to 84 °C.
Take `Fc1c(F)c(F)c(OC2(c3ccccc3)CCN(Cc3ccccc3)CC2)c(F)c1F`: the melting point is 80 to 83 °C.
Compound `CCOC(=O)c1nnc2n1-c1ccccc1C(c1ccccc1F)=NC2` yielded a melting point of 195 to 197 °C.
Then `COc1cc(NS(=O)(=O)c2ccc(N3CCNC3=O)cc2)cc(OC)c1OC`, with 233 to 235 °C.
The compound `Cn1c(-c2ccc(-n3cnc4ccccc43)cc2)cnc1[C@H](Cc1ccccn1)N(C=O)c1cc2ccccc2[nH]1` gave a melting point of 233 to 237 °C.
Regarding `COc1ccc2ncc3c(=O)n(-c4ccccc4)oc3c2c1`, the melting point was found to be 140 °C.
Consider `CCNc1nc(-n2cc(C(=O)O)c(=O)c3cc(F)c(F)c(Cl)c32)c(F)cc1F`, for which the melting point was 236 to 242 °C.
`CS(=O)(=O)c1ccc(-n2nc(C=O)cc2-c2ccccc2)cc1` displayed a melting point of 133 to 136 °C.
The compound `COc1ccc(-c2sc3cc(OC)ccc3c2C#N)cc1` yielded a melting point of 142 to 143 °C.
In turn, `Cc1cc2c(c(C)c1Br)C(c1ccc(C(C)C)cc1)CO2` (centres undefined) had a melting point of 90 to 91 °C.
`CC(=O)NC(CSCc1ccc(-c2nc(-c3ccccc3)cc(-c3ccccc3)n2)cc1)C(=O)O` (centres undefined) registered a melting point of 223 to 226 °C.
Take `CC(=O)N(Cc1ccc(C(=O)O)cc1)c1ccc2c(c1)C(C)(C)CCC2(C)C`: the melting point lay within 219 to 223 °C.
To `OCc1cccc(-c2cccc(-c3cn([C@H]4CN5CCC4CC5)nn3)c2)c1` belongs 201 °C.
As to `Fc1ccc2[nH]cc(C3=CCN(CC4COc5ccc6[nH]c(C(F)(F)F)nc6c5O4)CC3)c2c1` (centres undefined), the melting point is 236 to 238 °C.
Turning to `O=C(NNC(=S)Nc1cccc(Br)c1)c1cccc([N+](=O)[O-])c1`, the melting point lay within 163 to 165 °C.
As to `CCc1[nH]nc2c1C(=O)c1c(NC(N)=O)cccc1-2`, the melting point was above 250 °C.
In turn, `CCO/C(=N/O)C1Cc2cc(C(=O)c3ccccc3F)c(O)c(Cl)c2O1` (centres undefined) returned a melting point of 171 to 172 °C.
Regarding `Cc1ccccc1Nc1nc(N)nc2c(C)cccc12`, the melting point lay in the range of 118 to 120 °C.
As for `Cc1noc(NS(=O)(=O)c2ccccc2-c2ccc(-c3ncco3)cc2/C=C/c2ccccc2)c1C`, the melting point was 102 to 109 °C.
Consider `ClCCOc1cccc2ncccc12`, for which the melting point lay within 75 to 78 °C.
Then `COc1ccc(-n2cc(C(=O)O)c(=O)c3cc(F)c(F)c(F)c32)cc1`, with 252 to 254 °C.
On to `Cc1cc(-c2cc(C(F)(F)F)n3ncc(C(=O)Nc4nc(C)c(S(=O)(=O)NC(C)(C)CO)s4)c3n2)ccc1C(F)(F)F`, for which the melting point is 272 °C.
The compound `c1ccc(C(c2ccccc2)N2CCC2)cc1` displayed a melting point of 107 to 109 °C.
Take `COc1ccc2[nH]c(=O)c(=O)n(C)c2c1`: the melting point stood at 310 °C.
In turn, `c1ccc2c(c1)CNc1ccccc1S2` returned a melting point of 145 to 148 °C.
As to `CC(=O)OCC(C)(C(=O)OC(C)(C)C)C(=O)c1ccccc1` (centres undefined), the melting point is 95 to 97 °C.
For `COC(=O)c1scc(C)c1NC(=S)N1CCN(c2ncnc3cc(OC)c(OC)cc23)CC1`, the melting point lay within 113 to 116 °C.
Turning to `CCCCc1cn(Cc2ccc(-c3ccccc3C(=O)OC)cc2)c2cc(CO)ccc2c1=O`, the melting point amounted to 140 °C.
The compound `O=C(c1ccccc1Cl)P1(=O)Oc2ccccc2-c2ccccc21` (centres undefined) returned a melting point of 108 to 110 °C.
Then `CCOCc1nc2c(N)nc3cccnc3c2n1CCCCCC(=O)N1CCOCC1`, with 168 to 170 °C; and `COc1ccc(Br)cc1-c1cc(-c2ccc(Br)cc2)no1`, with 153 to 154 °C.
The compound `CCC1CCCCc2c1oc(=O)c(C(c1ccccc1)C1CC1)c2O` (centres undefined) gave a melting point of 63 to 71 °C.
`O=C(O)CC1(CC(O)=NO)CCCC1` gave a melting point of 70 to 74 °C.
Regarding `CCC(=O)N1Cc2cc(OC)ccc2C(Cc2c(Cl)cncc2Cl)=N1`, the melting point lay in the range of 195 to 197 °C.
In turn, `Cc1c(-c2cc(C(=O)O)c(Cl)cc2F)nn(C)c1C(F)(F)F` registered a melting point of 155 °C.
Then `COc1ccc(-c2sc3cc(O)ccc3c2Oc2ccc(OCCN3CCCCC3)cc2)cc1`, with 157 °C; and `CC(c1oc2ccccc2c(=O)c1-c1cccc(F)c1)n1nc(-c2ccc(Oc3ccccc3)cc2)c2c(N)ncnc21` (centres undefined), with 218 to 220 °C; and `Nc1c(Cl)cc(C(O)CNCCCCCCOCCc2ccccn2)cc1C(F)(F)F` (centres undefined), with 51.5 to 53 °C.
For the compound `O=c1[nH]c(-c2ccccn2)nnc1-c1ccc(Cl)cc1`, the melting point was 216 to 217 °C.
Then `CC(C)(C)OC(=O)Nc1ccc(-c2ccc(-c3ccccc3)cc2)cc1NC(=O)CC(=O)c1cccc(C#N)c1`, with 214 to 216 °C.
In the case of `C=CCc1cc(Cl)cc2nc(Cc3ccc(OC)c(OC4CCCC4)c3)oc12`, the melting point fell in the range of 43 to 44 °C.
`O=C1Nc2cc(F)ccc2C1c1ncnc2c1cnn2C1CCCC1` (centres undefined): the melting point fell in the range of 230 to 233 °C.
`NC(=O)c1c(N2CCN(Cc3ccccc3)CC2)nn2c(-c3cccc(C(F)(F)F)c3)ccnc12` came in with a melting point of 252 to 254 °C.
To `CC(C)OP(=O)(OC(C)C)C(=CC=Cc1ccccc1)P(=O)(OC(C)C)OC(C)C` belongs 103 to 104 °C.
For `C[C@H](c1ccccc1)n1c(N)nc2c(N)nc3ccccc3c21`, the melting point lay within 135 to 140 °C.
`O=C(CNCc1ccccc1)CP(=O)(O)C(Cl)(Cl)Cl` had a melting point of 194 to 195 °C.
The compound `CN(C)C(=O)Nc1cc(C(C)(C)C)[nH]n1` returned a melting point of 220 to 222 °C.
Then `O=[N+]([O-])c1cc(-c2nc3ccccc3s2)ccc1O`, with 214 to 215 °C; and `COC(=O)c1ccc(Cl)cc1NC(=O)CSc1ccccc1Br`, with 99 to 101 °C.
To `COc1ccc(NC(=S)Nc2ccc(NNC=O)cc2)cc1` belongs 198 to 200 °C; to `CC(C)(C)OC(=O)[C@@H]1CC[C@@H]2CN1C(=O)N2OCc1ccccc1`, 83 °C.
`COc1ccc(C(=O)Nc2c(-c3cc(Cl)ccc3O)c3cc(C(F)(F)F)ccc3[nH]c2=O)cc1` came in with a melting point of 285 to 287 °C.
Turning to `CC(C)(C)OC(=O)N1CCN(CCc2ccc(F)cc2)CC1`, the melting point fell in the range of 68 to 70 °C.
`NS(=O)(=O)NCC=Cc1ccccc1` displayed a melting point of 118 °C.
Take `Cc1nccn1CCNC(=O)c1cccc2oc(-c3ccccc3)nc12`: the melting point was in the range of 125 to 127 °C.
`ON=C1CCOc2cc(Cl)c(Cl)cc21` yielded a melting point of 192 to 193 °C.
For the compound `O=C(O)c1cn2c3c(cc(F)cc3c1=O)CCC2C(F)(F)F` (centres undefined), the melting point was in the range of 295 to 297 °C.
Compound `Cc1nc(NC(=O)Nc2ccc(N3CCN(C(=O)Nc4ccc(OCCO)cc4Cl)CC3)nc2)sc1C` registered a melting point of 184 to 185 °C.
Compound `CC(C(O)=S)c1sc(S(N)(=O)=O)cc1[N+](=O)[O-]` (centres undefined) gave a melting point of 154 to 155 °C.
Compound `Nc1ccn([C@@H]2O[C@H](CO)[C@@H](O)/C2=C\F)c(=O)n1` registered a melting point of 166 °C.
Take `CC(C)=NOCc1nc2c(N)nc(C)c(C)c2n1CCCCN(C(N)=O)C1CCCCC1`: the melting point was 210 to 212 °C.
With `O=[N+]([O-])C/C=C/c1sc2ccc(Cl)cc2c1Cl`, the melting point lay in the range of 143 to 146 °C.
Turning to `COc1c(N2CCC(CN)C2)c(F)cc2c(=O)c(C(=O)O)cn(C3CC3)c12` (centres undefined), the melting point was in the range of 198 to 200 °C.
On to `C=CC(=O)Nc1ccc2c(Nc3cccc(C)c3)ncnc2c1`, for which the melting point is 270 °C.
Regarding `COc1cc(I)c(C(=O)OC(C)COC(=O)c2ccc3c(c2I)OCO3)cc1OC` (centres undefined), the melting point was 131 to 133 °C.
In turn, `CS(=O)(=O)c1ccc(-c2nc3cc(C4CCN(S(=O)(=O)CCCO)CC4)ccc3o2)c(F)c1` displayed a melting point of 204 to 206 °C.
For the compound `CCOC(=O)c1cc(=O)c2cc(Oc3ccccc3)c(NS(C)(=O)=O)cc2o1`, the melting point is 155 to 156 °C.
Compound `Nc1ncc(F)cc1I` gave a melting point of 70 °C.
Then `COc1ccc(C=Cc2cccc(C#N)n2)cc1`, with 121 to 122 °C; and `COc1ccc(Cn2c(=O)c3cccnc3n(CCCCl)c2=O)cc1`, with 114 to 115 °C; and `CC(=O)NC[C@H]1CN(c2ccc(N3CCC(n4nnc(N5CCN(C)CC5)n4)CC3)c(F)c2)C(=O)O1`, with 174 to 176 °C.
Regarding `CC(=O)c1cc(C=O)c(O)cc1O`, the melting point lay within 134 to 136 °C.
The compound `C#Cc1cnn2c(C(F)F)cc(-c3cccc(C(F)(F)F)c3)nc12` yielded a melting point of 149 °C.
To `CC=Cc1cnn(-c2c(Cl)cc(C(F)(F)F)cc2Cl)n1` belongs 35 °C.
The compound `O=C1C(c2cc(OCc3ccccc3)ccc2O)c2ccccc2N1Cc1ccc(Cl)s1` (centres undefined) showed a melting point of 173 to 175 °C.
In turn, `O=C(C(=C1NCCCS1)[N+](=O)[O-])c1ccc([N+](=O)[O-])cc1` showed a melting point of 158 to 160 °C.
Consider `Oc1cccc2c3ccccc3n(C3CCCCO3)c12` (centres undefined), for which the melting point lay in the range of 137 to 140 °C.
Turning to `CCc1c2c(c(C)[nH]c1=O)CC(c1ccccn1)CC2` (centres undefined), the melting point was determined as 300 °C.
Then `CN1CC2=C(n3cnc(C#CC(C)(C)O)c3C1)S(=O)C=C2` (centres undefined), with 180 to 181 °C.
With `Cc1ncc(-c2ccc(Cl)cc2)cc1C(=O)OC(C)(C)C`, the melting point was 70 to 72 °C.
As for `Cc1ccn2c(Br)c(CCc3ccc4nc(N)sc4c3)nc2c1`, the melting point lay in the range of 233 to 236 °C.
As to `O=C(O)c1ccc(Cl)nc1NCc1ccncc1`, the melting point lay in the range of 217 to 220 °C.
Then `Cn1ncc(C(=O)O)c1C(=O)Nc1ccn2nc(-c3cccc(F)c3)nc2c1`, with above 260 °C; and `CCOC(=O)C(C)c1cc(C(C)(C)C)c(O)c(C(C)(C)C)c1` (centres undefined), with 54 to 56 °C.
The compound `COc1ccc(C(=O)Nc2ccc(C(C)(C)CNC(=O)c3nn(C)cc3Br)cc2)cc1OC` showed a melting point of 112 to 113 °C.
To `Brc1sc2ccccc2c1Br` belongs 57 to 59 °C.
`O=C(O)COc1ccc2c(c1)-c1nc(SC(c3ccccc3)c3ccccc3)sc1CC2`: the melting point was in the range of 141 to 143 °C.
`COC1=C(OC)CC(C)(CNCCCCc2ccc(NC(=O)c3cccc4c(=O)c5cc(F)ccc5sc34)cc2)C=C1` (centres undefined) displayed a melting point of 168 °C.
